Laboratory results reported in patent EP4810052A2, “HCRHR2 SELECTIVE POLYPEPTIDES” (Gubra A/S, priority 2023, dated 2026).
Read-outs that look alike come from different tables or passages of the source. Starred links: 1 amine or outer side, 2 acyl side, 3 side chain; linkers in the order of their positions; H or OH if unused. Non-standard residues stand in square brackets, D forms with d. Residues, ends and D or L forms follow the SMILES beside them. Groups on a side chain read outwards from the residue. *: point of attachment. C20 diacid = O=C(O)CCCCCCCCCCCCCCCCCCC(=O)*; Pro(4S-NH2) = N[C@@H]1CN[C@H](C(=O)O)C1; γGlu = O=C(O)[C@H](CCC(=O)[*:2])N[*:1]; Nle = CCCC[C@H](N)C(=O)O; AEEA = NCCOCCOCC(=O)O

Experiments:
hCRHR1 = molecular target: T1, hCRHR1 (Homo sapiens, UniProt P34998); experiment: HTRF cAMP assay, determination of hCRHR1 potency (peptide libraries 5 conc., purified peptides 11 conc.); assay type: cell-based
T1 sequence (P34998 24-415): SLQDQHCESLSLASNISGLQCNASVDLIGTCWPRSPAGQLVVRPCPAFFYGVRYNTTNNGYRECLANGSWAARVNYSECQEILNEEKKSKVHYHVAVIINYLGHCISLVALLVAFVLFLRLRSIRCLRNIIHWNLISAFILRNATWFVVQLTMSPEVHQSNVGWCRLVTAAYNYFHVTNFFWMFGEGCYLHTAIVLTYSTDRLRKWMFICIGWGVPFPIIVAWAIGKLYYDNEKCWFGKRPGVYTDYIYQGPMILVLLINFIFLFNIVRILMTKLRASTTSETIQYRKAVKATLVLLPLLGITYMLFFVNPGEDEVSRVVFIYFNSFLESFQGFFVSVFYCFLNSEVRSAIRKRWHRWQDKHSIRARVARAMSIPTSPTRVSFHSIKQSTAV
How it was run: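 Cellular cAMP was read by time-resolved FRET between d2-labelled cAMP and cryptate anti-cAMP antibody. The cells were freshly thawed suspension CHO-K1 cells stably expressing human CRHR1.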

hCRHR2 = molecular target: T2, hCRHR2 (Homo sapiens, UniProt Q13324); experiment: HTRF cAMP assay, determination of hCRHR2 potency (peptide libraries 5 conc., purified peptides 11 conc.); assay type: cell-based
T2 sequence (Q13324 1-411): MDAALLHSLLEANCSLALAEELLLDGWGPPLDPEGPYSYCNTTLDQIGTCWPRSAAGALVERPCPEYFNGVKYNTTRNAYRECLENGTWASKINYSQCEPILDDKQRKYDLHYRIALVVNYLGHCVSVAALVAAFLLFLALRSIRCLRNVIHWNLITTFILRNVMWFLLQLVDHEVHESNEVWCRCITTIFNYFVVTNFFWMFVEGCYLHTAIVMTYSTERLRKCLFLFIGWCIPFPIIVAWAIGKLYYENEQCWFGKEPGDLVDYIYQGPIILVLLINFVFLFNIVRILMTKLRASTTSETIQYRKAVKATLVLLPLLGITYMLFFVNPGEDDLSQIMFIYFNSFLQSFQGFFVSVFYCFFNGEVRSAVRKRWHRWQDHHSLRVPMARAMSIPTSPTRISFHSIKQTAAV
How it was run: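 EC50 derived by variable-slope sigmoid regression of FRET-based cAMP data; cellular cAMP displaced d2-labelled tracer from cryptate anti-cAMP antibody. Stable human CRHR2 CHO-K1 suspension cells, revived from frozen stocks just before the run.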

[1] = Table 3, matched molecular pairs X^38 L vs Nle, peptide library of Example 4, read-out: hCRHR1 pEC50 (converted)
[2] = Table 3, matched molecular pairs X^38 L vs Nle, peptide library of Example 4, read-out: hCRHR2 pEC50 (converted)
[3] = library peptides, matched molecular pairs L vs Nle in position X^38, read-out: Potency hCRHR1 pEC50 (converted)
[4] = library peptides, matched molecular pairs L vs Nle in position X^38, read-out: Potency hCRHR2 pEC50 (converted)

| Structure (SMILES) | EC50 (hCRHR1; [1]) [nM] | EC50 (hCRHR2; [2]) [nM] | EC50 (hCRHR1; [3]) [nM] | EC50 (hCRHR2; [4]) [nM] |
| --- | --- | --- | --- | --- |
| CC[C@H](C)[C@H](N)C(=O)N[C@H](C(=O)N[C@@H](CC(C)C)C(=O)N[C@@H](CO)C(=O)N[C@@H](CC(C)C)C(=O)N[C@@H](CC(=O)O)C(=O)N[C@H](C(=O)N1CCC[C@H]1C(=O)N[C@H](C(=O)NCC(=O)N[C@@H](CC(C)C)C(=O)N[C@@H](CC(C)C)C(=O)N[C@@H](CCC(N)=O)C(=O)N[C@H](C(=O)N[C@@H](CC(C)C)C(=O)N[C@@H](CC(C)C)C(=O)N[C@@H](CCC(=O)O)C(=O)N[C@@H](CCC(N)=O)C(=O)N[C@@H](C)C(=O)N[C@@H](CCCNC(=N)N)C(=O)N[C@@H](C)C(=O)N[C@@H](CCC(=O)O)C(=O)N[C@@H](CO)C(=O)N[C@@H](C)C(=O)N[C@@H](CCCNC(=N)N)C(=O)N[C@@H](CCC(=O)O)C(=O)N[C@@H](CCC(N)=O)C(=O)N[C@@H](C)C(=O)N[C@@H](CCCCNC(=O)COCCOCCNC(=O)COCCOCCNC(=O)CC[C@H](NC(=O)CC[C@H](NC(=O)CCCCCCCCCCCCCCCCCCC(=O)O)C(=O)O)C(=O)O)C(=O)N[C@H](C(=O)N[C@@H](CC(N)=O)C(=O)N[C@@H](C)C(=O)N[C@@H](CCC(=O)O)C(=O)N[C@H](C(=O)N[C@@H](CC(C)C)C(=O)N[C@@H](C)C(=O)N[C@@H](CCC(=O)O)C(=O)N[C@H](C(N)=O)C(C)C)[C@@H](C)CC)[C@@H](C)O)[C@@H](C)CC)[C@@H](C)CC)C(C)C)C(C)C [SEQ ID NO: 41] (H-IVLSLDVPIGLLQILLEQARAESAREQAK([AEEA-AEEA-γGlu-γGlu-C20 diacid])TNAEILAEV-NH2) | 15800 | 0.631 |  |  |
| CCCC[C@H](NC(=O)[C@@H](NC(=O)[C@H](CCC(=O)O)NC(=O)[C@H](C)NC(=O)[C@H](CC(N)=O)NC(=O)[C@@H](NC(=O)[C@H](CCCCNC(=O)COCCOCCNC(=O)COCCOCCNC(=O)CC[C@H](NC(=O)CC[C@H](NC(=O)CCCCCCCCCCCCCCCCCCC(=O)O)C(=O)O)C(=O)O)NC(=O)[C@H](C)NC(=O)[C@H](CCC(N)=O)NC(=O)[C@H](CCC(=O)O)NC(=O)[C@H](CCCNC(=N)N)NC(=O)[C@H](C)NC(=O)[C@@H](NC(=O)[C@H](CCCNC(=N)N)NC(=O)[C@H](C)NC(=O)[C@H](CCCNC(=N)N)NC(=O)[C@H](C)NC(=O)[C@H](CCC(N)=O)NC(=O)[C@H](CCC(=O)O)NC(=O)[C@H](CC(C)C)NC(=O)[C@H](CC(C)C)NC(=O)[C@@H](NC(=O)[C@H](CCC(N)=O)NC(=O)[C@H](CC(C)C)NC(=O)[C@H](CC(C)C)NC(=O)CNC(=O)[C@@H](NC(=O)[C@@H]1C[C@H](N)CN1C(=O)[C@@H](NC(=O)[C@H](CC(=O)O)NC(=O)[C@H](CC(C)C)NC(=O)[C@H](CO)NC(=O)[C@H](CC(C)C)NC(=O)[C@@H](NC(=O)[C@@H](N)[C@@H](C)CC)C(C)C)C(C)C)[C@@H](C)CC)[C@@H](C)CC)C(C)C)[C@@H](C)O)[C@@H](C)CC)C(=O)N[C@@H](C)C(=O)N[C@@H](CCC(=O)O)C(=O)N[C@H](C(N)=O)C(C)C [compound 77] (H-IVLSLDV[Pro(4S-NH2)]IGLLQILLEQARARVAREQAK([AEEA-AEEA-γGlu-γGlu-C20 diacid])TNAEI[Nle]AEV-NH2) |  |  | 3.16 | 0.501 |
| CC[C@H](C)[C@H](N)C(=O)N[C@H](C(=O)N[C@@H](CC(C)C)C(=O)N[C@@H](CO)C(=O)N[C@@H](CC(C)C)C(=O)N[C@@H](CC(=O)O)C(=O)N[C@H](C(=O)N1CCC[C@H]1C(=O)N[C@H](C(=O)NCC(=O)N[C@@H](CC(C)C)C(=O)N[C@@H](CC(C)C)C(=O)N[C@@H](CCC(N)=O)C(=O)N[C@H](C(=O)N[C@@H](CC(C)C)C(=O)N[C@@H](CC(C)C)C(=O)N[C@@H](CCC(=O)O)C(=O)N[C@@H](CCC(N)=O)C(=O)N[C@@H](C)C(=O)N[C@@H](CCCNC(=N)N)C(=O)N[C@@H](C)C(=O)N[C@@H](CCC(N)=O)C(=O)N[C@@H](C)C(=O)N[C@@H](C)C(=O)N[C@@H](CCCNC(=N)N)C(=O)N[C@@H](CCC(=O)O)C(=O)N[C@@H](CCC(N)=O)C(=O)N[C@@H](C)C(=O)N[C@@H](CCCCNC(=O)COCCOCCNC(=O)COCCOCCNC(=O)CC[C@H](NC(=O)CC[C@H](NC(=O)CCCCCCCCCCCCCCCCCCC(=O)O)C(=O)O)C(=O)O)C(=O)N[C@H](C(=O)N[C@@H](CC(N)=O)C(=O)N[C@@H](C)C(=O)N[C@@H](CCC(=O)O)C(=O)N[C@H](C(=O)N[C@@H](CC(C)C)C(=O)N[C@@H](C)C(=O)N[C@@H](CCC(=O)O)C(=O)N[C@H](C(N)=O)[C@@H](C)CC)[C@@H](C)CC)[C@@H](C)O)[C@@H](C)CC)[C@@H](C)CC)C(C)C)C(C)C [SEQ ID NO: 43] (H-IVLSLDVPIGLLQILLEQARAQAAREQAK([AEEA-AEEA-γGlu-γGlu-C20 diacid])TNAEILAEI-NH2) | 63100 | 0.501 |  |  |

The remaining lines, values ahead:

| EC50 (hCRHR1; [1]) [nM] | EC50 (hCRHR2; [2]) [nM] | EC50 (hCRHR1; [3]) [nM] | EC50 (hCRHR2; [4]) [nM] | Structure (SMILES) |
| --- | --- | --- | --- | --- |
|  |  | 251 | 0.316 | CCCC[C@H](NC(=O)[C@@H](NC(=O)[C@H](CCC(=O)O)NC(=O)[C@H](C)NC(=O)[C@H](CC(N)=O)NC(=O)[C@@H](NC(=O)[C@H](CCCCNC(=O)COCCOCCNC(=O)COCCOCCNC(=O)CC[C@H](NC(=O)CC[C@H](NC(=O)CCCCCCCCCCCCCCCCCCC(=O)O)C(=O)O)C(=O)O)NC(=O)[C@H](C)NC(=O)[C@H](CCC(N)=O)NC(=O)[C@H](CCC(=O)O)NC(=O)[C@H](CCCNC(=N)N)NC(=O)[C@H](C)NC(=O)[C@H](CCC(N)=O)NC(=O)[C@H](CCCNC(=N)N)NC(=O)[C@H](C)NC(=O)[C@H](CCCNC(=N)N)NC(=O)[C@H](C)NC(=O)[C@H](CCC(N)=O)NC(=O)[C@H](CCC(=O)O)NC(=O)[C@H](CC(C)C)NC(=O)[C@H](CC(C)C)NC(=O)[C@@H](NC(=O)[C@H](CCC(N)=O)NC(=O)[C@H](CC(C)C)NC(=O)[C@H](CC(C)C)NC(=O)CNC(=O)[C@@H](NC(=O)[C@@H]1CCCN1C(=O)[C@@H](NC(=O)[C@H](CC(=O)O)NC(=O)[C@H](CC(C)C)NC(=O)[C@H](CO)NC(=O)[C@H](CC(C)C)NC(=O)[C@@H](NC(=O)[C@@H](N)[C@@H](C)CC)C(C)C)C(C)C)[C@@H](C)CC)[C@@H](C)CC)[C@@H](C)O)[C@@H](C)CC)C(=O)N[C@@H](C)C(=O)N[C@@H](CCC(=O)O)C(=O)N[C@H](C(N)=O)C(C)C [compound 53] (H-IVLSLDVPIGLLQILLEQARARQAREQAK([AEEA-AEEA-γGlu-γGlu-C20 diacid])TNAEI[Nle]AEV-NH2) |
| 126000 | 1.26 |  |  | CC[C@H](C)[C@H](N)C(=O)N[C@H](C(=O)N[C@@H](CC(C)C)C(=O)N[C@@H](CO)C(=O)N[C@@H](CC(C)C)C(=O)N[C@@H](CC(=O)O)C(=O)N[C@H](C(=O)N1CCC[C@H]1C(=O)N[C@H](C(=O)NCC(=O)N[C@@H](CC(C)C)C(=O)N[C@@H](CC(C)C)C(=O)N[C@@H](CCC(N)=O)C(=O)N[C@H](C(=O)N[C@@H](CC(C)C)C(=O)N[C@@H](CC(C)C)C(=O)N[C@@H](CCC(=O)O)C(=O)N[C@@H](CCC(N)=O)C(=O)N[C@@H](C)C(=O)N[C@@H](CCCNC(=N)N)C(=O)N[C@@H](C)C(=O)N[C@@H](CCCNC(=N)N)C(=O)N[C@@H](C)C(=O)N[C@@H](CCC(N)=O)C(=O)N[C@@H](CCCNC(=N)N)C(=O)N[C@@H](CCC(=O)O)C(=O)N[C@@H](CCC(=O)O)C(=O)N[C@@H](C)C(=O)N[C@@H](CCCCNC(=O)COCCOCCNC(=O)COCCOCCNC(=O)CC[C@H](NC(=O)CC[C@H](NC(=O)CCCCCCCCCCCCCCCCCCC(=O)O)C(=O)O)C(=O)O)C(=O)N[C@H](C(=O)N[C@@H](CC(N)=O)C(=O)N[C@@H](C)C(=O)N[C@@H](CCC(=O)O)C(=O)N[C@H](C(=O)N[C@@H](CC(C)C)C(=O)N[C@@H](C)C(=O)N[C@@H](CCC(=O)O)C(=O)N[C@H](C(N)=O)C(C)C)[C@@H](C)CC)[C@@H](C)O)[C@@H](C)CC)[C@@H](C)CC)C(C)C)C(C)C [SEQ ID NO: 33] (H-IVLSLDVPIGLLQILLEQARARAQREEAK([AEEA-AEEA-γGlu-γGlu-C20 diacid])TNAEILAEV-NH2) |
